Test results reported in ChEMBL document CHEMBL4325873, “Decreasing the CYP2D6 contribution to metabolism of a CK1ε inhibitor” (Bioorg Med Chem Lett, 2018).

Tests used:
CYP3A4 = CYP3A4 (Homo sapiens, UniProt P08684); test: Drug metabolism in human liver microsomes assessed as CYP3A4-mediated drug metabolism in presence of ketoconazole; format: ADME; settings: with ketoconazole, read-out: Drug metabolism
[1] = molecular target: Casein kinase I isoform epsilon (Homo sapiens, UniProt P49674); test: Inhibition of human CK1 epsilon using casein as substrate after 2 hrs in presence of [33P]-ATP by scintillation counting analysis
[2] = Drug metabolism in human liver microsomes; format: ADME, Microsome; settings: read-out: Drug metabolism
Cytochrome P450 2D6 [3] = molecular target: T1, Cytochrome P450 2D6 (Homo sapiens, UniProt P10635); test: Drug metabolism assessed as recombinant CYP2D6 (unknown origin)-mediated 3-(3-(pyridin-4-yl)-6-(4-(pyrrolidin-1-yl)piperidin-1-yl)imidazo[1,2-b]pyridazin-2-yl)phenol formation; format: ADME; settings: recombinant enzyme
Cytochrome P450 2D6 [4] = molecular target: T1, Cytochrome P450 2D6; test: Drug metabolism assessed as recombinant CYP2D6 (unknown origin)-mediated 3-(3-(pyridin-4-yl)-6-(4-(pyrrolidin-1-yl)-3,4-dihydropyridin-1(2H)-yl)imidazo[1,2-b]pyridazin-2-yl)phenol formation; format: ADME; settings: recombinant enzyme
Cytochrome P450 2D6 [5] = molecular target: T1, Cytochrome P450 2D6; test: Drug metabolism assessed as recombinant CYP2D6 (unknown origin)-mediated 4-(3-(pyridin-4-yl)-6-(4-(pyrrolidin-1-yl)piperidin-1-yl)imidazo[1,2-b]pyridazin-2-yl)phenol formation; format: ADME; settings: recombinant enzyme

T1 sequence (P10635 whole entry): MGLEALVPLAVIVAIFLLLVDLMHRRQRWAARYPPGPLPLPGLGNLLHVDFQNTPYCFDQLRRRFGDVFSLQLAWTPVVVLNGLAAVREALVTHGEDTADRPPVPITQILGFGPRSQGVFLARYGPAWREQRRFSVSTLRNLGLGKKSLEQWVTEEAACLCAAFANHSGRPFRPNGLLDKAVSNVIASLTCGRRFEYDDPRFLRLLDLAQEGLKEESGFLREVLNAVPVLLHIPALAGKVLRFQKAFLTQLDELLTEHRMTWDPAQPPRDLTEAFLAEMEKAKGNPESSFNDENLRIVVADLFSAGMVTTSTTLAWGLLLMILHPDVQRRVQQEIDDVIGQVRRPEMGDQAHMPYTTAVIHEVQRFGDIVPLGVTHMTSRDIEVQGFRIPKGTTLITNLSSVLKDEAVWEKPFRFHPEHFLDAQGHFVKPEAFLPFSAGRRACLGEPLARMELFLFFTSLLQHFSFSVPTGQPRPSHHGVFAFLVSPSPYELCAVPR
Chain of Casein kinase I isoform epsilon (P49674 whole entry, canonical isoform): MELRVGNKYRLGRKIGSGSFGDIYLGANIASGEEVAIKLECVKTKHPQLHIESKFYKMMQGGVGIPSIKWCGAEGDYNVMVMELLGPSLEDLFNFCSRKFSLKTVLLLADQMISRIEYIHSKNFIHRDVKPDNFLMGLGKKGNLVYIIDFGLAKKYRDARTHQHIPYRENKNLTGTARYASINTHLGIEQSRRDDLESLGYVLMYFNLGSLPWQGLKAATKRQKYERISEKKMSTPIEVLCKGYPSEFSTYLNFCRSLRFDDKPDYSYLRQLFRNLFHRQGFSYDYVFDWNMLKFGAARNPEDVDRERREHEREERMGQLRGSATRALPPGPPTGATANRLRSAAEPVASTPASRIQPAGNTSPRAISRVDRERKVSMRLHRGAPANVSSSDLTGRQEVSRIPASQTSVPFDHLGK
Chain of CYP3A4 (P08684 whole entry, canonical isoform): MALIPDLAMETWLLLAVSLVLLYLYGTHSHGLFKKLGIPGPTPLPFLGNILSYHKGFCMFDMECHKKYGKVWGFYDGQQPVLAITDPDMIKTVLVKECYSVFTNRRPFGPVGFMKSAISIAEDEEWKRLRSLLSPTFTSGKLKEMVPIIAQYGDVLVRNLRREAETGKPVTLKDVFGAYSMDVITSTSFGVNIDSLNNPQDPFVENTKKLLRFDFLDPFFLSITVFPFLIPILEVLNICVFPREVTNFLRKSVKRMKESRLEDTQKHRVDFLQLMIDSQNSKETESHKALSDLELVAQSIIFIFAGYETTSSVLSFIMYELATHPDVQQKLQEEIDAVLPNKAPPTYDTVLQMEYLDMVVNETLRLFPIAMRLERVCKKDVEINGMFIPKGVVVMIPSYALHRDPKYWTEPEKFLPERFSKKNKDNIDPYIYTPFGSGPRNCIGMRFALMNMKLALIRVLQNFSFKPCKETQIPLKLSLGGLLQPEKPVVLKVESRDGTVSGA

Row | SMILES | metabolised (CYP3A4) | IC50 [1] | metabolised [2] | Drug metabolism (Cytochrome P450 2D6 [3]) | Drug metabolism (Cytochrome P450 2D6 [4]) | Drug metabolism (Cytochrome P450 2D6 [5])
1 | CC1(C)CN(c2ccc3nc(-c4ccc(F)cc4)c(-c4ccncc4)n3n2)CCN1 | 27% | 14.6 nM | 52% | – | – | –
2 | c1ccc(-c2nc3ccc(N4CC5CC4CN5)nn3c2-c2ccncc2)cc1 (stereo not drawn) | 1% | 70 nM | 18% | – | – | –
3 | C[C@H]1CN(c2ccc3nc(-c4ccc(F)cc4)c(-c4ccncc4)n3n2)CCN1 | 46% | 14.2 nM | 66% | – | – | –
4 | c1ccc(-c2nc3ccc(N4CCC(N5CCCC5)CC4)nn3c2-c2ccncc2)cc1 | 24.5% | 26 nM | 38.5% | Metabolite_Detected | Metabolite_Detected | Metabolite_Detected
5 | CC1(C)CN(c2ccc3nc(-c4cc(F)cc(F)c4)c(-c4ccncc4)n3n2)CCN1 | 15% | 43 nM | 25% | – | – | –
6 | Fc1ccc(-c2nc3ccc(N4CC5CC4CN5)nn3c2-c2ccncc2)cc1 (stereo not drawn) | 0% | 15.7 nM | 18% | – | – | –

Stronger by IC50 [1], values ahead:

Row | metabolised (CYP3A4) | IC50 [1] | metabolised [2] | Drug metabolism (Cytochrome P450 2D6 [3]) | Drug metabolism (Cytochrome P450 2D6 [4]) | Drug metabolism (Cytochrome P450 2D6 [5]) | SMILES
7 | 15% | 4.6 nM | 57% | – | – | – | CC1(C)CN(c2ccc3nc(-c4ccccc4)c(-c4ccncc4)n3n2)CCN1
8 | 5% | 8.6 nM | 13% | – | – | – | Cc1cc(C)cc(-c2nc3ccc(N4CCNC(C)(C)C4)nn3c2-c2ccncc2)c1
9 | 30% | 13.7 nM | 56% | – | – | – | C[C@H]1CN(c2ccc3nc(-c4ccccc4)c(-c4ccncc4)n3n2)CCN1
10 | 16% | 1 nM | 20% | – | – | – | Fc1ccc(-c2nc3ccc(N4CCC(N5CCCC5)CC4)nn3c2-c2ccncc2)cc1
